Assay results taken from ChEMBL document CHEMBL3244278, “Cerebrovasodilatation through selective inhibition of the enzyme carbonic anhydrase. 1. Substituted benzenedisulfonamides” (J Med Chem, 1978).
Active and inactive are the calls of the source. The rule behind the calls is not given here.

Assays:
[1] = test system: Mus musculus; assay: Anticonvulsant activity in po dosed mouse assessed as protection against electroshock-induced maximal seizure effect administered via gavage 2 hrs prior to electroshock stimulation; type: functional; details: for ED50: Mus musculus, po
[2] = test system: Mus musculus; assay: Anticonvulsant activity in mouse assessed as protection against electroshock-induced maximal seizure effect up to 100 mg/kg, po administered via gavage 2 hrs prior to electroshock stimulation; type: functional, organism-based; design: dose 100 mg/kg
[3] = Octanol-water partition coefficient, log P of the compound; type: physicochemical
[4] = Elimination half life in iv dosed dog plasma; type: ADME, organism-based, Canis lupus familiaris; details: read-out: beta t1/2 (converted)
[5] = Dissociation constant, pKa of the compound; type: physicochemical
[6] = Protein binding in plasma (unknown origin); type: ADME, cell-free; details: unidentified, read-out: PPB (converted)
[7] = test system: Rattus norvegicus; assay: Induction of diuretic activity in po dosed rat assessed as increase in urine output after 4 hrs; type: organism-based

SMILES | Activity [2] | further results
NS(=O)(=O)c1ccc(S(=O)(=O)N2CCC(O)(c3ccccn3)CC2)cc1 | – | ED50 [1]: 40 mg/kg
COC1CCN(S(=O)(=O)c2cc(C)c(S(N)(=O)=O)c(C)c2)CC1 | inactive | –
CC(=O)C1CCN(S(=O)(=O)c2ccc(S(N)(=O)=O)cc2)CC1 | inactive | –
COC1CCN(S(=O)(=O)c2ccc(S(N)(=O)=O)c(Cl)c2)CC1 [UK-12130] | – | logP [3]: 0.62; half-life [4]: 3 h
COC1CCN(S(=O)(=O)c2ccc(S(N)(=O)=O)c(C(F)(F)F)c2)CC1 | inactive | –
COC1CCN(S(=O)(=O)c2cc(Cl)c(S(N)(=O)=O)cc2C)CC1 | inactive | –
CN1CN(c2ccccc2)C2(CCN(S(=O)(=O)c3ccc(S(N)(=O)=O)cc3)CC2)C1=O | – | ED50 [1]: > 40 mg/kg
NS(=O)(=O)c1nnc(NS(=O)(=O)c2ccccc2)s1 [BENZOLAMIDE] | – | pKa [5]: 3.2; fraction unbound [6]: 0.08
CC(=O)Nc1nnc(S(N)(=O)=O)s1 [ACETAZOLAMIDE] | – | Activity [1]: 36 mg/kg; ED50 [7]: 5 mg/kg
COC1(C)CCN(S(=O)(=O)c2ccc(S(N)(=O)=O)cc2)CC1 | inactive | –
NS(=O)(=O)c1cc(Cl)c(S(=O)(=O)N2CCOCC2)c(Cl)c1 | inactive | –
NS(=O)(=O)c1ccc(S(=O)(=O)N2CCC3(CC2)NC(=O)NC3=O)cc1Cl | inactive | –
NS(=O)(=O)c1ccc(S(=O)(=O)N2CCOCC2)cc1C(F)(F)F | inactive | –
COC1CCN(S(=O)(=O)c2c(Cl)cc(S(N)(=O)=O)cc2Cl)CC1 | inactive | –
